Experimental data: PubChem BioAssay (NCI)
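Compound exposure: 48 hours, 5 concentrations, 96-well plates. TGI: total growth inhibition.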

Key:
Assay in all cases: NCI-60 cell line screen, 48 h
[1] = system: A498 renal
[2] = system: A549 NSCLC
[3] = system: ACHN renal
[4] = system: CAKI-1 renal
[5] = system: DMS 114 small cell lung
[6] = system: HCT-116 colon
[7] = system: HCT-15 colon
[8] = system: HOP-62 NSCLC
[9] = system: HOP-92 NSCLC
[10] = system: HT29 colon
[11] = system: IGROV1 ovarian
[12] = system: KM12 colon
[13] = system: KM20L2 colon
[14] = system: LOX IMVI melanoma
[15] = system: LXFL 529 NSCLC
[16] = system: M14 melanoma
[17] = system: M19-MEL melanoma
[18] = system: MALME-3M melanoma
[19] = system: NCI-H460 lung
[20] = system: NCI-H522 lung
[21] = system: OVCAR-3 ovarian
[22] = system: OVCAR-5 ovarian
[23] = system: SF-268 CNS
[24] = system: SF-539 CNS
[25] = system: SK-MEL-2 melanoma
[26] = system: SK-MEL-28 melanoma
[27] = system: SK-MEL-5 melanoma
[28] = system: SK-OV-3 ovarian
[29] = system: SN12C renal
[30] = system: SNB-75 CNS
[31] = system: SNB-78 CNS
[32] = system: SR leukemia
[33] = system: SW-620 colon
[34] = system: TK-10 renal
[35] = system: U251 CNS
[36] = system: UACC-62 melanoma
[37] = system: UO-31 renal
[38] = system: 786-0 renal
[39] = system: BT-549 breast
[40] = system: CCRF-CEM leukemia
[41] = system: COLO 205 colon
[42] = system: DU-145 prostate
[43] = system: EKVX NSCLC
[44] = system: HCC-2998 colon
[45] = system: HL-60(TB) leukemia
[46] = system: HS 578T breast
[47] = system: K-562 leukemia
[48] = system: MCF7 breast
[49] = system: MDA-MB-231 breast
[50] = system: MDA-MB-435
[51] = system: MDA-N
[52] = system: MOLT-4 leukemia
[53] = system: NCI-H226 lung
[54] = system: NCI-H23 lung
[55] = system: NCI/ADR-RES ovarian
[56] = system: OVCAR-4 ovarian
[57] = system: OVCAR-8 ovarian
[58] = system: PC-3 prostate
[59] = system: RPMI-8226 leukemia
[60] = system: RXF 393 renal
[61] = system: SF-295 CNS
[62] = system: SNB-19 CNS
[63] = system: T-47D breast
[64] = system: UACC-257 melanoma
[65] = system: DMS 273 small cell lung
[66] = system: HOP-18 NSCLC
[67] = system: XF 498 CNS

COc1cc2c(cc1OC)C1C(=O)c3c(O)cc4c(c3OC1CO2)C=CC(C)(C)O4 (stereo not drawn)
TGI [1]: > 100 µM
TGI [2]: > 100 µM
TGI [3]: > 100 µM
TGI [4]: > 100 µM
TGI [5]: 25.7 µM
TGI [6]: 70.6 µM
TGI [7]: > 100 µM
TGI [8]: 55.6 µM
TGI [9]: 74.5 µM
TGI [10]: > 100 µM
TGI [11]: > 100 µM
TGI [12]: 68.3 µM
TGI [13]: 89.5 µM
TGI [14]: 38.8 µM
TGI [15]: 94 µM
TGI [16]: 76.3 µM
TGI [17]: 61.4 µM
TGI [18]: 72.9 µM
TGI [19]: 93.1 µM
TGI [20]: 5.45 µM
TGI [21]: 65.5 µM
TGI [22]: > 100 µM
TGI [23]: > 100 µM
TGI [24]: > 100 µM
TGI [25]: 50.7 µM
TGI [26]: > 100 µM
TGI [27]: 25.3 µM
TGI [28]: > 100 µM
TGI [29]: > 100 µM
TGI [30]: 96.4 µM
TGI [31]: > 100 µM
TGI [32]: > 100 µM
TGI [33]: > 100 µM
TGI [34]: > 100 µM
TGI [35]: 93.2 µM
TGI [36]: 52.3 µM
TGI [37]: 59.2 µM

NC(N)=NCC1CCCCCCN1 (stereo not drawn)
TGI [38]: > 100 µM
TGI [1]: > 100 µM
TGI [2]: > 100 µM
TGI [3]: > 100 µM
TGI [39]: > 100 µM
TGI [4]: > 100 µM
TGI [40]: > 100 µM
TGI [41]: > 100 µM
TGI [42]: > 100 µM
TGI [43]: > 100 µM
TGI [44]: > 100 µM
TGI [6]: > 100 µM
TGI [7]: > 100 µM
TGI [45]: > 100 µM
TGI [8]: > 100 µM
TGI [9]: > 100 µM
TGI [46]: > 100 µM
TGI [10]: > 100 µM
TGI [11]: > 100 µM
TGI [47]: > 100 µM
TGI [12]: > 100 µM
TGI [16]: > 100 µM
TGI [18]: > 100 µM
TGI [48]: > 100 µM
TGI [49]: > 100 µM
TGI [50]: > 100 µM
TGI [51]: > 100 µM
TGI [52]: > 100 µM
TGI [53]: > 100 µM
TGI [54]: > 100 µM
TGI [19]: > 100 µM
TGI [20]: > 100 µM
TGI [55]: > 100 µM
TGI [21]: > 100 µM
TGI [56]: > 100 µM
TGI [22]: > 100 µM
TGI [57]: > 100 µM
TGI [58]: > 100 µM
TGI [59]: > 100 µM
TGI [60]: > 100 µM
TGI [23]: > 100 µM
TGI [61]: > 100 µM
TGI [24]: > 100 µM
TGI [25]: > 100 µM
TGI [26]: > 100 µM
TGI [27]: > 100 µM
TGI [28]: > 100 µM
TGI [29]: > 100 µM
TGI [62]: > 100 µM
TGI [30]: > 100 µM
TGI [32]: > 100 µM
TGI [33]: > 100 µM
TGI [63]: > 100 µM
TGI [34]: > 100 µM
TGI [35]: > 100 µM
TGI [64]: > 100 µM
TGI [36]: > 100 µM
TGI [37]: > 100 µM

c1ccc(-c2nc3ccccc3nc2SCc2cccnc2)cc1
TGI [38]: > 100 µM
TGI [2]: > 100 µM
TGI [3]: > 100 µM
TGI [40]: > 100 µM
TGI [41]: > 100 µM
TGI [5]: > 100 µM
TGI [65]: > 100 µM
TGI [43]: > 100 µM
TGI [6]: > 100 µM
TGI [45]: > 100 µM
TGI [66]: > 100 µM
TGI [9]: > 100 µM
TGI [10]: > 100 µM
TGI [47]: > 100 µM
TGI [15]: > 100 µM
TGI [16]: > 100 µM
TGI [18]: > 100 µM
TGI [52]: > 100 µM
TGI [53]: > 100 µM
TGI [54]: > 100 µM
TGI [21]: > 100 µM
TGI [56]: > 100 µM
TGI [57]: > 100 µM
TGI [59]: > 100 µM
TGI [23]: > 100 µM
TGI [61]: > 100 µM
TGI [26]: > 100 µM
TGI [28]: > 100 µM
TGI [29]: > 100 µM
TGI [62]: > 100 µM
TGI [30]: > 100 µM
TGI [31]: > 100 µM
TGI [35]: > 100 µM
TGI [64]: > 100 µM
TGI [37]: > 100 µM
TGI [67]: > 100 µM

COC(=O)C1Cc2ccc(O)c(O)c2CN1 (stereo not drawn)
TGI [38]: 31.8 µM
TGI [1]: > 100 µM
TGI [2]: > 100 µM
TGI [3]: > 100 µM
TGI [39]: 32.2 µM
TGI [4]: > 100 µM
TGI [40]: > 100 µM
TGI [41]: > 100 µM
TGI [42]: 81.2 µM
TGI [43]: > 100 µM
TGI [44]: > 100 µM
TGI [6]: 52.6 µM
TGI [7]: 87.1 µM
TGI [45]: 72.6 µM
TGI [8]: > 100 µM
TGI [9]: 86.7 µM
TGI [46]: 56 µM
TGI [10]: 55.7 µM
TGI [11]: > 100 µM
TGI [47]: 83.6 µM
TGI [12]: > 100 µM
TGI [14]: 28.4 µM
TGI [16]: 29.7 µM
TGI [18]: 98.7 µM
TGI [48]: 32 µM
TGI [49]: 43.3 µM
TGI [50]: 30.5 µM
TGI [51]: 30.8 µM
TGI [52]: 58.7 µM
TGI [53]: > 100 µM
TGI [54]: 31.8 µM
TGI [19]: > 100 µM
TGI [20]: > 100 µM
TGI [55]: 48.6 µM
TGI [21]: > 100 µM
TGI [56]: 39.3 µM
TGI [22]: 70.3 µM
TGI [58]: 84.3 µM
TGI [59]: 68 µM
TGI [60]: > 100 µM
TGI [61]: 20.4 µM
TGI [24]: 32.5 µM
TGI [25]: 31.2 µM
TGI [26]: 31 µM
TGI [27]: 28.5 µM
TGI [28]: > 100 µM
TGI [29]: 30 µM
TGI [62]: > 100 µM
TGI [30]: 34.4 µM
TGI [32]: 82.2 µM
TGI [33]: 40.7 µM
TGI [63]: > 100 µM
TGI [34]: > 100 µM
TGI [35]: 31.2 µM
TGI [64]: 29.2 µM
TGI [36]: 39 µM
TGI [37]: 51.8 µM
